Laboratory results reported in patent publication US20240343740A1, “MACROCYCLIC GLUCAGON-LIKE PEPTIDE 1 RECEPTOR AGONISTS” (Eli Lilly and Company, priority 2021, published 2024).
Read-outs that look alike come from different tables or passages of the source.

Key:
[1] = cc_pd bond
human GLP-1R [2] = target: T1, human GLP-1R (Homo sapiens, UniProt P43220); assay: Human GLP-1 Receptor HEK293 cell cAMP assay, 581 fmol/mg GLP-1R expression density; format: cell-based; design: expressed in transfected cells; host or cells: HEK293 clonal cell line; details: HEK293 cell line with 581 fmol/mg expression density of GLP-1R; for EC50: geometric mean, read-out: EC50 nM (SEM, n), intracellular cAMP response, relative EC50; for Emax: read-out: Emax % (SEM, n), intracellular cAMP response
How it was run: (§1)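 HEK293 clonal lines expressing human GLP-1R, 20-point compound curves, 30 min at 37° C in DMEM with 0.1% casein, 250 μM IBMX, 0.5% DMSO. cAMP by HTRF, converted via standard curve to % of maximal human GLP-1(7-36)NH2 response; relative EC50 and Emax from four-parameter logistic fit.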

human GLP-1R [3] = target: T1, human GLP-1R; assay: Human GLP-1 Receptor HEK293 cell cAMP assay, 104 fmol/mg GLP-1R expression density; format: cell-based; design: expressed in transfected cells; host or cells: HEK293 clonal cell line; details: HEK293 cell line with 104 fmol/mg expression density of GLP-1R; for EC50: geometric mean, read-out: EC50 nM (SEM, n), intracellular cAMP response, relative EC50; for Emax: read-out: Emax % (SEM, n), intracellular cAMP response
How it was run: as §1

[4] = percent of maximal response to GLP-1(7-36)NH2, arithmetic mean

T1 sequence (P43220 24-463): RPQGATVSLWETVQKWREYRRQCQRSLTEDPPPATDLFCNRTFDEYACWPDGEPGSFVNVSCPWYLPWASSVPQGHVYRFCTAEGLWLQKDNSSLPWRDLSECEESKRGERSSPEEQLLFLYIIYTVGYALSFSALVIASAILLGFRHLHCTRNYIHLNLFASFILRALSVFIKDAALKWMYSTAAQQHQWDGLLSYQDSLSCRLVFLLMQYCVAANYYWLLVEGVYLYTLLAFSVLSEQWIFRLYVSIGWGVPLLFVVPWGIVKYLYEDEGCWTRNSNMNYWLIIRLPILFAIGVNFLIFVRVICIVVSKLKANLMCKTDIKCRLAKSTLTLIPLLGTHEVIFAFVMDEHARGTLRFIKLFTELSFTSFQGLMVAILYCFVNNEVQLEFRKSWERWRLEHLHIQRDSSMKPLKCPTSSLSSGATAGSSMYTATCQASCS

In the case of CCOC(=O)Cc1cc(F)c2cc1CCOCc1cc(C#N)ccc1COc1cccc-2n1, the ring closure, isolated yield ([1]; from CCOC(=O)Cc1cc(F)c(B2OC(C)(C)C(C)(C)O2)cc1CCOCc1cc(C#N)ccc1COc1cccc(Cl)n1, 14-membered ring, XPhos Pd G2/K3PO4, THF/water, 25.0 mM, 70.0 °C, 0.5 h) is reported as 34%.
For CCOC(=O)Cc1cc(F)c2cc1CCOCc1cc(ccc1Cl)COc1cccc-2n1, the ring closure, isolated yield ([1]; from CCOC(=O)Cc1cc(F)c(B2OC(C)(C)C(C)(C)O2)cc1CCOCc1cc(COc2cccc(Cl)n2)ccc1Cl, 15-membered ring, XPhos Pd G2/K3PO4, THF/water, 27.0 mM, 60.0 °C, 1.5 h) was 20%.
CCOC(=O)Cc1cc(F)c2cc1CCOc1cc(C#N)ccc1COc1cccc-2n1 showed a ring closure, isolated yield ([1]; from CCOC(=O)Cc1cc(F)c(Br)cc1CCOc1cc(C#N)ccc1COc1cccc(Br)n1, 13-membered ring, Me6Sn2/Pd(dppf)Cl2, 1,4-dioxane, 50.0 mM, 100.0 °C, 3.0 h) of 41%.
For CCOC(=O)Cc1cc(F)c2cc1COCCc1cc(Cl)cc(F)c1COc1cccc-2n1, the ring closure, isolated yield ([1]; from CCOC(=O)Cc1cc(F)c(Br)cc1COCCc1cc(Cl)cc(F)c1COc1cccc(Cl)n1, 14-membered ring, B2pin2/KOPiv/XPhos Pd G2, then K3PO4, THF/water, 24.0 mM, 55.0 °C, 6.0 h, 2 steps) was 27%.
Compound CCOC(=O)Cc1cc(F)c2cc1COCc1cc(Cl)ccc1COc1cccc-2n1 has a ring closure, isolated yield ([1]; from CCOC(=O)Cc1cc(F)c(Br)cc1COCc1cc(Cl)ccc1COc1cccc(Cl)n1, 13-membered ring, B2neo2/KOPiv/XPhos Pd G2, then K3PO4, THF, then THF/water, 25.0 mM, 55.0 °C, 5.25 h, 2 steps) of 32%.
CCOC(=O)Cc1cc(F)c2cc1OCCCc1cc(C#N)ccc1CNc1cccc-2n1 showed a ring closure, isolated yield ([1]; from CCOC(=O)Cc1cc(F)c(B2OCC(C)(C)CO2)cc1OCCCc1cc(C#N)ccc1CNc1cccc(Br)n1, 14-membered ring, PdCl2(dtbpf)/K3PO4, 1,4-dioxane/water, 43.0 mM, 70.0 °C, 2.0 h) of 49%.
For CCOC(=O)Cc1cc(F)c2cc1OCCCc1cc(ccc1C#N)COc1cccc-2n1, the ring closure, isolated yield ([1]; from CCOC(=O)Cc1cc(F)c(B2OC(C)(C)C(C)(C)O2)cc1OCCCc1cc(COc2cccc(Br)n2)ccc1C#N, 15-membered ring, PdCl2(dtbpf)/K3PO4, 1,4-dioxane/water, 27.0 mM, 50.0 °C, 0.25 h) was 38%.
Compound COc1cc(C(=O)NS(=O)(=O)CC2CC2)cc2c1nc(Cc1cc(C)c3cc1OCCCc1cc(F)ccc1COc1cccc-3n1)n2C[C@@H]1CCO1 [Example 69, (S)—N-((Cyclopropylmethyl)sulfonyl)-2-((5^4-fluoro-1^6-methyl-3,9-dioxa-2(2,6)-pyridina-1(1,3),5(1,2)-dibenzenacyclononaphane-1^4-yl)methyl)-4-methoxy-1-(oxetan-2-ylmethyl)-1H-benzo[d]imidazole-6-carboxamide] has an EC50 (human GLP-1R [2]) of 59.8 nM, an Emax (human GLP-1R [2]; [4]) of 71.6% and an EC50 (human GLP-1R [3]) of 103 nM. The Emax (human GLP-1R [3]; [4]) was 26.6%.
With COCCOc1cc(C(=O)O)cc2c1nc(Cc1cc(F)c3cc1COCCc1cc(C#N)cc(F)c1COc1cccc-3n1)n2C[C@@H]1CCO1 [Example 70, (S)-2-((5^4-Cyano-1^6,5^6-difluoro-3,8-dioxa-2(2,6)-pyridina-1(1,3),5(1,2)-dibenzenacyclononaphane-1^4-yl)methyl)-4-(2-methoxyethoxy)-1-(oxetan-2-ylmethyl)-1H-benzo[d]imidazole-6-carboxylic acid] the EC50 (human GLP-1R [2]) was 3.11 nM, the Emax (human GLP-1R [2]; [4]) was 92.3% and the EC50 (human GLP-1R [3]) was 12.6 nM. It also gave an Emax (human GLP-1R [3]; [4]) of 95%.
Work on O=C(O)c1ccc2nc(Cc3ccc4cc3OCCCc3cc(-n5ccc(=O)c(F)c5)ccc3COc3cccc-4n3)n(C[C@@H]3CCO3)c2c1 [Example 71, (S)-2-((5^4-(3-Fluoro-4-oxopyridin-1(4H)-yl)-3,9-dioxa-2(2,6)-pyridina-1(1,3),5(1,2)-dibenzenacyclononaphane-1^4-yl)methyl)-1-(oxetan-2-ylmethyl)-1H-benzo[d]imidazole-6-carboxylic acid] yielded an EC50 (human GLP-1R [2]) of 138 nM, an Emax (human GLP-1R [2]; [4]) of 68.4% and an EC50 (human GLP-1R [3]) of 598 nM. It also gave an Emax (human GLP-1R [3]; [4]) of 52.1%.
For Cc1cn(-c2ccc3c(c2)CCCOc2cc(ccc2Cc2nc4ccc(C(=O)O)cc4n2C[C@@H]2CCO2)-c2cccc(n2)OC3)cn1 [Example 72, (S)-2-((5^4-(4-Methyl-1H-imidazol-1-yl)-3,9-dioxa-2(2,6)-pyridina-1(1,3),5(1,2)-dibenzenacyclononaphane-1^4-yl)methyl)-1-(oxetan-2-ylmethyl)-1H-benzo[d]imidazole-6-carboxylic acid], the EC50 (human GLP-1R [2]) was 92.5 nM, the Emax (human GLP-1R [2]; [4]) was 106% and the EC50 (human GLP-1R [3]) was 348 nM. The Emax (human GLP-1R [3]; [4]) was 90.4%.
O=C(O)c1ccc2nc(Cc3ccc4cc3OCCCc3cc(-n5ccnc5)ccc3COc3cccc-4n3)n(C[C@@H]3CCO3)c2c1 [Example 73, (S)-2-((5^4-(1H-Imidazol-1-yl)-3,9-dioxa-2(2,6)-pyridina-1(1,3),5(1,2)-dibenzenacyclononaphane-1^4-yl)methyl)-1-(oxetan-2-ylmethyl)-1H-benzo[d]imidazole-6-carboxylic acid] showed an EC50 (human GLP-1R [2]) of 21.3 nM, an Emax (human GLP-1R [2]; [4]) of 106% and an EC50 (human GLP-1R [3]) of 68.5 nM. It also gave an Emax (human GLP-1R [3]; [4]) of 84.1%.
Compound O=C(O)c1ccc2nc(Cc3ccc4cc3OCCCc3cc(-n5ccc(=O)cc5)ccc3COc3cccc-4n3)n(C[C@@H]3CCO3)c2c1 [Example 74, (S)-1-(Oxetan-2-ylmethyl)-2-((5^4-(4-oxopyridin-1(4H)-yl)-3,9-dioxa-2(2,6)-pyridina-1(1,3),5(1,2)-dibenzenacyclononaphane-1^4-yl)methyl)-1H-benzo[d]imidazole-6-carboxylic acid] has an EC50 (human GLP-1R [2]) of 155 nM, an Emax (human GLP-1R [2]; [4]) of 92.1% and an EC50 (human GLP-1R [3]) of 533 nM. The Emax (human GLP-1R [3]; [4]) was 73.3%.
Work on COCCOc1cc(C(=O)O)cc2c1nc(Cc1cc(F)c3cc1COCc1cc(-c4ccc(=O)n(C)c4)ccc1COc1cccc-3n1)n2C[C@@H]1CCO1 [Example 75, (S)-2-((1^6-Fluoro-5^4-(1-methyl-6-oxo-1,6-dihydropyridin-3-yl)-3,7-dioxa-2(2,6)-pyridina-1(1,3),5(1,2)-dibenzenacyclooctaphane-1^4-yl)methyl)-4-(2-methoxyethoxy)-1-(oxetan-2-ylmethyl)-1H-benzo[d]imidazole-6-carboxylic acid] yielded an EC50 (human GLP-1R [2]) of 6.33 nM, an Emax (human GLP-1R [2]; [4]) of 93.9% and an EC50 (human GLP-1R [3]) of 17.4 nM. The Emax (human GLP-1R [3]; [4]) was 71.6%.
O=C(O)c1ccc2nc(Cc3ccc4cc3OCCCc3cc(-c5cnn(C6COC6)c5)ccc3COc3cccc-4n3)n(C[C@@H]3CCO3)c2c1 [Example 76, (S)-1-(Oxetan-2-ylmethyl)-2-((5^4-(1-(oxetan-3-yl)-1H-pyrazol-4-yl)-3,9-dioxa-2(2,6)-pyridina-1(1,3),5(1,2)-dibenzenacyclononaphane-1^4-yl)methyl)-1H-benzo[d]imidazole-6-carboxylic acid] gave an EC50 (human GLP-1R [2]) of 102 nM, an Emax (human GLP-1R [2]; [4]) of 99.9% and an EC50 (human GLP-1R [3]) of 359 nM. For the same compound, the Emax (human GLP-1R [3]; [4]) was 78.2%.
For CN(C)C(=O)c1ccc(-c2ccc3c(c2)CCCOc2cc(ccc2Cc2nc4ccc(C(=O)O)cc4n2C[C@@H]2CCO2)-c2cccc(n2)OC3)cc1 [Example 77, (S)-2-((5^4-(4-(Dimethylcarbamoyl)phenyl)-3,9-dioxa-2(2,6)-pyridina-1(1,3),5(1,2)-dibenzenacyclononaphane-1^4-yl)methyl)-1-(oxetan-2-ylmethyl)-1H-benzo[d]imidazole-6-carboxylic acid], the EC50 (human GLP-1R [2]) was 193 nM, the Emax (human GLP-1R [2]; [4]) was 107% and the EC50 (human GLP-1R [3]) was 724 nM. For the same compound, the Emax (human GLP-1R [3]; [4]) was 83%.
Work on Nc1cc(-c2ccc3c(c2)CCCOc2cc(ccc2Cc2nc4ccc(C(=O)O)cc4n2C[C@@H]2CCO2)-c2cccc(n2)OC3)ccn1 [Example 78, (S)-2-((5^4-(2-Aminopyridin-4-yl)-3,9-dioxa-2(2,6)-pyridina-1(1,3),5(1,2)-dibenzenacyclononaphane-1^4-yl)methyl)-1-(oxetan-2-ylmethyl)-1H-benzo[d]imidazole-6-carboxylic acid] yielded an EC50 (human GLP-1R [2]) of 95.8 nM, an Emax (human GLP-1R [2]; [4]) of 99.8% and an EC50 (human GLP-1R [3]) of 248 nM. The Emax (human GLP-1R [3]; [4]) was 74.1%.
Cn1ccc(-c2ccc3c(c2)CCCOc2cc(ccc2Cc2nc4ccc(C(=O)O)cc4n2C[C@@H]2CCO2)-c2cccc(n2)OC3)cc1=O [Example 79, (S)-2-((5^4-(1-Methyl-2-oxo-1,2-dihydropyridin-4-yl)-3,9-dioxa-2(2,6)-pyridina-1(1,3),5(1,2)-dibenzenacyclononaphane-1^4-yl)methyl)-1-(oxetan-2-ylmethyl)-1H-benzo[d]imidazole-6-carboxylic acid] gave an EC50 (human GLP-1R [2]) of 369 nM, an Emax (human GLP-1R [2]; [4]) of 34.7% and an EC50 (human GLP-1R [3]) of 648 nM. For the same compound, the Emax (human GLP-1R [3]; [4]) was 9.53%.
In the case of O=C(O)c1ccc2nc(Cc3ccc4cc3OCCCc3cc(-c5ccc(=O)[nH]c5)ccc3COc3cccc-4n3)n(C[C@@H]3CCO3)c2c1 [Example 80, (S)-1-(Oxetan-2-ylmethyl)-2-((5^4-(6-oxo-1,6-dihydropyridin-3-yl)-3,9-dioxa-2(2,6)-pyridina-1(1,3),5(1,2)-dibenzenacyclononaphane-1^4-yl)methyl)-1H-benzo[d]imidazole-6-carboxylic acid], the EC50 (human GLP-1R [2]) is reported as 130 nM, the Emax (human GLP-1R [2]; [4]) is reported as 84.1% and the EC50 (human GLP-1R [3]) is reported as 303 nM. The Emax (human GLP-1R [3]; [4]) was 56%.
For “(S)-2-((5^4-Cyano-1^6,2^3-difluoro-3,8-dioxa-2(2,6)-pyridina-1(1,3),5(1,2)-dibenzenacyclononaphane-1^4-yl)methyl)-4-(2-methoxyethoxy)-1-(oxetan-2-ylmethyl)-1H-benzo[d]imidazole-6-carboxylic acid [Example 60]”, the EC50 (human GLP-1R [2]) was 0.938 nM, the “Emax % (SEM, n), intracellular cAMP response” value (human GLP-1R [2]; [4]) was 109% and the EC50 (human GLP-1R [3]) was 2.99 nM. The “Emax % (SEM, n), intracellular cAMP response” value (human GLP-1R [3]; [4]) was 87.9%.
